We go through one molecule from patent US20240400549A1, “COMPOUNDS AND THEIR USES FOR TREATING NEURODEGENERATIVE DISEASE” (Academia Sinica, priority 2021, published 2024).

The target in one series is T1, YFP—C-TDP-43 aggregates (Homo sapiens, UniProt Q13148).
T1 construct: IW33 [Psnb-l:C-TDP-43219-414-YFP (iwIs22)]; expressed in transfected cells; host or cells: transgenic C. elegans strain IW33 (pan-neuronal snb-1 promoter)
The series can be described thus: YFP-C-TDP-43 aggregates in transgenic C. elegans (confocal imaging). Type of series: in vivo. The conditions noted are these: 5 μM I-1b; compared to DMSO control or MG132-treated group. The procedure: The YFP—C-TDP-43 transgenic strains of C. elegans generated in this study were IW33 [Psnb-l:C-TDP-43219-414-YFP (iwIs22)]. The strains of nematodes were maintained with standard procedure and grown at 20° C. as previously described (Zhang, T. et al. Hum. Mol. Genet. 2011, 20 (10), 1952). For all assays, the transgenic young two-day (80 hours) adults were used. For larvae synchronization, the eggs were isolated by lysing gravid adult worms with freshly prepared bleaching solution (0.5 mL 5 M NaOH with 1 mL bleach) and incubated in S buffer (recipe) for overnight. For drug treatments, compound I-1b and/or DMSO were solely or along with MG132 applied to fresh NGM plates prior to installing the synchronized C. elegans. The body bends of the corresponding treatment in a duration of 30 seconds of the various strains were documented through SMZ800N stereomicroscope equipped with a CCD camera (Nikon). A body bend was counted as the head of C. elegans travels across the mid-body in 1×PBS buffer. Then, the bending videos of C. elegans were analyzed by ImageJ with the wrMTrck plugin (Nussbaum-Krammer, C. I. et al. J. Vis. Exp. 2015, (95), 52321). […]
As YFP—C-TDP-43 readily forms cytosolic aggregates in nervous system, the YFP—C-TDP-43 aggregates both in the neuron processes and neuron bodies of the ventral cord were monitored. […]

In a further series the target is T2, eGFP-C-TDP-43 (Homo sapiens, UniProt Q13148).
T2 construct: expressed in transfected cells; host or cells: Neuro-2a (mouse neuroblastoma)
T2 sequence (Q13148 208-414 limits assumed): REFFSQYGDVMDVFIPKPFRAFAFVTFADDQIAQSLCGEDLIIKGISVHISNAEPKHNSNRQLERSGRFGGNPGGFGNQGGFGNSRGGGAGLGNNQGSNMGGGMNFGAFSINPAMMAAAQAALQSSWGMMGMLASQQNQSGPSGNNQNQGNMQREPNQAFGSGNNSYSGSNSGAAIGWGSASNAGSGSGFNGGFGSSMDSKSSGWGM
As to the kind of experiment: SDS-PAGE dose dependency of eGFP-C-TDP-43 degradation. In kind it is cell-based, mouse. The settings on record: Neuro-2a cells. The protocol:
Proteins were separated using 12% Tris-glycine SDS-PAGE. Proteins were transferred onto PVDF membrane (Millipore). Blots were blocked with 5% bovine serum albumin (BSA, Sigma) in 0.1% PBST for at least 1 hour. After blocking, blots were subjected to incubation with the primary antibodies TDP-43 (C-terminal) (1:1,000, Proteintech), TDP-43 (1:1,000, Abcam), p-TDP-43 (pS409/410) (1:1,000, Cosmo Bio), GFP (1:1,000, Abcam), All (1:1,000, Invitrogen), GAPDH (1:10,000, GeneTex), or β-actin (1:10,000, GeneTex) in 2% BSA and incubated overnight at 4° C. on a shaker. After washed with PBST, the blots were further incubated with HRP-labelled secondary antibodies (1:3,000, GeneTex) at room temperature for another 1 hour. The blots were washed and developed with electrochemiluminescence (ECL, Millipore). The signals were visualized with luminescence (iBright™ FL1000 instrument, Invitrogen).
Based on the amount of j-actin (internal control) on NC membrane, overexpression of eGFP-C-TDP-43 did induce a significant amount of C-TDP-43 species (mock control, 1.08±0.31, the black bar in FIG. 1, (B)) comparing with that in blank control of Neuro-2a cells (0.38±0.08, the white bar in FIG. 1, (B)). […]

The subject of a further series is Neuro-2a cells. As to the kind of experiment: Cytotoxicity of compounds in Neuro-2a cells. Type of series: cell-based, mouse. The conditions noted are these: 5 μM concentration.
Series [1] has as its target T3, eGFP-C-TDP-43 oligomeric intermediates (Homo sapiens, UniProt Q13148).
T3 construct: expressed in transfected cells; host or cells: Neuro-2a (mouse neuroblastoma)
The series can be described thus: Size-exclusion chromatography and slot blot with oligomer-specific antibody A11. Type of series: cell-based, mouse. The settings on record: lysate of Neuro-2a cells overexpressing eGFP-C-TDP-43, 48 h.

T1 sequence (Q13148 219-414 limits assumed): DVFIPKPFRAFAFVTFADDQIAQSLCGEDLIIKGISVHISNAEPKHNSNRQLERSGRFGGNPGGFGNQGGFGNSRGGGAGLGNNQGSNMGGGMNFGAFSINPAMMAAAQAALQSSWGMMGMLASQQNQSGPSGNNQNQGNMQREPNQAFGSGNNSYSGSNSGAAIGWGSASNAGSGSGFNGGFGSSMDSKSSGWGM
T3 sequence (Q13148 208-414 limits assumed): as the sequence (Q13148 208-414 limits assumed) above

Turning to `CN(C)c1ccc(-c2nc3ccc(OCCOCCOCCNc4cccc5c4C(=O)N(C4CCC(=O)NC4=O)C5=O)cc3s2)cc1` (stereo not shown) [I-1b, 4-((2-(2-(2-((2-(4-(dimethylamino)phenyl)benzo[d]thiazol-6-yl)oxy)ethoxy)ethoxy)ethyl)amino)-2-(2,6-dioxopiperidin-3-yl)isoindoline-1,3-dione], the “YFP—C-TDP-43 aggregates in neuron processes and neuron bodies of the ventral cord” value on YFP—C-TDP-43 aggregates was “fewer aggregates with reduced fluorescence intensity”. The “degradation of eGFP-C-TDP-43, dose dependency” value on eGFP-C-TDP-43 was “degraded eGFP-C-TDP-43 in a dose-dependent manner”. For the same molecule, the “cytotoxicity comparing to mock group of Neuro-2a cells” value in the series on Neuro-2a cells is on record as “neglectable cytotoxicity”. Moreover, the “A11 signal intensity in SEC fractions 9-11 (oligomeric intermediates)” value in series [1] is reported as “significantly reduced”.
